# According to patent publication US8304418B2, “Pyrazolopyrimidinone kinase inhibitor” (Agennix AG, priority 2007, dated 2012):
# “And” between values parts separate entries of the source, which are not always exact repeats. Identical values can stand only once. Like-named read-outs stand apart in the source and are kept apart here.
# Experiments:
# [1] = tested on: CDK4/6-specific phosphorylation of Rb on serine 780; experiment: In-cell Rb phosphorylation (immunoblot); assay type: cell-based, human; conditions: Homo sapiens, read-out: IC50 (uM) - Rb-5 phosphorylation
# Description: (§1) This set of assays represents CDKs involved in cell cycle progression (CDK1, 4/6), and the “regulatory CDK” (CDK9) which is involved in transcriptional regulation.
# (§2) The following cancer cell lines were investigated in the course of these studies: A2780 (ovarian), HCT116 (colon), RPMI8226 (myeloma), SKMel28 (melanoma), Colo205 (colorectal), MDA-MB-435 (melanoma), MDA-MB-453 (breast, carcinoma), MDA-MB-468 (breast, adenocarcinoma), A549 (lung), Raji (lymphoma, Burkitt). Cell lines were obtained from public repositories.
# CDK4/6-specific phosphorylation of Rb on serine 780 (Ser780phos). Asynchronous growing cells were treated with an appropriate concentration of test compound or DMSO for 1 hour. Proteins were extracted using the AllPrep RNA/Protein kit according to the manufacturer's recommendations (Qiagen, Germany). Rb was immunoprecipitated over night using Ab05 antibody (Oncogene Inc.). Proteins were separated by SDS-PAGE, blotted to PVDF membranes and analyzed with antibodies against total (sc-102; Santa Cruz) or Ser780-phosphorylated Rb proteins (Cell Signalling). Visualization and quantification was performed as above.
# [2] = PAMPA permeability assay at pH 7.4; assay type: in vitro ADME
# Method: (§3) The assays used for determining the properties of the kinase inhibitors were performed in accordance with standard procedures well known to those skilled in the art. For example, assays for determining inhibitory activity on CDKs or in cellular assays are described in WO 00/218962, WO 2005/026129, and WO 2005/063765. Solubility assays at pH 7.4 were essentially performed as described by Avdeef, A. in Pharmacokinetic Optimization in Drug Research; Testa, B.; van de Waterbeemd, H.; Folkers, G.; Guy, R. Eds.; Wiley-VHC: Zurich, 2001; pp 305-326. PAMPA permeability assays at pH 7.4 were essentially performed as described in Kansy et al., J. Med. Chem. 41: 1007-10, 1998.
# CDK4 = CDK4 (Homo sapiens, UniProt P11802); experiment: Biochemical CDK4 inhibition assay
# Method: as §3
# [3] = tested on: HCT116 colon carcinoma cells
# Method: (§5) Xenograft Tumor-Models: 100 athymic nu/nu female mice (6-8 weeks old) from CRL were allowed to acclimate for 4 days. […] The 3rd passage of cells with approximate 90% confluence was used for these experiments. Briefly, on Day 0, mice were inoculated with 0.1 ml (total 5×10^6 cells) of the respective cell-type as a cell suspension (50×10^6 cells/ml) by subcutaneous injection into the fat pad area near the mammary gland under light anesthesia. When the average tumor weight in all mice reached over 100 mg (day 10), 80 animals with an average tumor size of 130 mg were selected and were randomly divided into 8 groups.
# (§6) A 20 G gavage needle was used for the oral treatment.
# (§7) Tumor growth and body weight were monitored and recorded three times a week. Tumors were measured by determining the length and width of the tumor with a digital caliper. Tumor weight was estimated using the following formula: Tumor Weight (mg)=(w^2×1)×0.52 where w=width and l=length in mm of the tumor.
# (§8) Experimental treatment may cause partial regression (PR) or complete regression (CR) of tumors. PR is defined when the tumor size is 50% or less than the starting (day 1) size but greater than 0.0 mg for three consecutive measurements during the course of the study. CR occurs when there is no measurable tumor mass for three consecutive measurements. Cures are defined when CR are maintained until the completion of the experiment.
# (§9) Mice were sacrificed when their tumors reached the 1000 mm^3 endpoint volume. Treatment efficacy was determined as Log Cell Kill (LCK).
# (§10) Toxic deaths are defined as deaths caused by compound treatment and not by advanced disease state. […] Non-tumor related deaths after this point are recorded, but not considered toxic deaths.
# (§11) Briefly, the empirical distributions of T and Td were derived from B=1000 realisations of random selection of n individual animals with replacement from the set i=1, . . . , n of the appropriate group of mice containing n evaluable animals, estimating the mean tumor size for such selection of animals for each time-point, and linear regression analysis from a semi-log plot of such averages against time. Dead mice and mice with no measurable tumor size were treated as missing data and were ignored when calculating the average.
# CDK1 = CDK1 (Homo sapiens, UniProt P06493); experiment: Biochemical CDK1 inhibition assay
# Method: as §3
# CDK9 = CDK9 (Homo sapiens, UniProt P50750); experiment: Biochemical CDK9 inhibition assay; conditions: read-out: enzymatic IC50 of CDK9 activity
# Method: as §3
# Sk-mel-28 = experiment: Cell proliferation, Sk-mel-28; assay type: cell-based; conditions: Homo sapiens
# Method: as §3
# (§4) When compared to IC50s of cellular proliferation by compound I, (as determined by the methods described earlier), the corresponding IC50 for cellular inhibition of CDK9-dependent RNAPII phosphorylation is approximately similar.
# [4] = tested on: CDK1-dependent Eg-5 phosphorylation on threonine 927; experiment: In-cell Eg-5 phosphorylation (immunoblot); assay type: cell-based, human; conditions: Homo sapiens, 1 h
# Description: as §1, §2
# CDK1-dependent Eg-5 phosphorylation on threonine 927 (Thr927phos). Thr927phos was investigated by arresting cells over night in G2/M phase with 25 ng/ml nocodazole (optimized final concentration) followed by treatment with DMSO as control or an appropriate concentration of test compound for 1 hour. Detached as well as adherent cells were collected and lysed with CLB-1 lysis buffer. the lysate cleared by centrifugation and subjected to SDS-PAGE. The proteins were blotted on PVDF membranes and subsequently analyzed by antibodies against total Eg-5 (Becton Dickinson) and Eg-5 Thr927phos (Bio legend). Visualization and estimation of IC50 was conducted as above.
# CDK6 = CDK6 (Homo sapiens, UniProt Q00534); experiment: Biochemical CDK6 inhibition assay
# Method: as §3
# MDA-MB-468 = experiment: Cell proliferation, MDA-MB-468; assay type: cell-based; conditions: Homo sapiens
# Method: as §3, §4
# [5] = tested on: human A2780 ovarian tumor cells
# Method: as §5, §6, §7, §8, §9, §10, §11
# Colo205 = experiment: Cell proliferation, Colo205; assay type: cell-based; conditions: Homo sapiens, COLO 205
# Method: as §3, §4
# [6] = Solubility assay at pH 7.4; assay type: physicochemical; conditions: pH 7.4, aqueous buffer
# Method: as §3
# HCT116 = experiment: Cell proliferation, HCT116; assay type: cell-based; conditions: Homo sapiens, HCT-116
# Method: as §3, §4
# [7] = tested on: cell lines A2780, HCT-116, HT-29, HepG2, NCI/ADR-RES, OVCAR3, H460, IMR-90, T98G, A549 among others; experiment: Inhibition of proliferation in a set of cancer-model cell lines; assay type: cell-based; conditions: read-out: IC50 values, inhibition of proliferation (range over cell lines)
# Method: as §3
# panel of non-CDK kinases = experiment: Inhibitory activity against a panel of non-CDK kinases; assay type: biochemical
# Method: as §3
# CDK6, sequence (Q00534 whole entry): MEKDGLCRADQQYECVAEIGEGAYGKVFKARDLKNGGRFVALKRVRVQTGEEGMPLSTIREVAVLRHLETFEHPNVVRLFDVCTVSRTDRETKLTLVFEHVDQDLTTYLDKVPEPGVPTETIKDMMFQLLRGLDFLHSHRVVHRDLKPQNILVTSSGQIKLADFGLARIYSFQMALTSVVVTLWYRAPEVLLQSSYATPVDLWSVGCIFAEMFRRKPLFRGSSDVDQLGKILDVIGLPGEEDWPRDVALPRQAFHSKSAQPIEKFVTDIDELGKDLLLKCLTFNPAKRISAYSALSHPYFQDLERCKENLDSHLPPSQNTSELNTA
# CDK6, sequence (P30281 whole entry partner): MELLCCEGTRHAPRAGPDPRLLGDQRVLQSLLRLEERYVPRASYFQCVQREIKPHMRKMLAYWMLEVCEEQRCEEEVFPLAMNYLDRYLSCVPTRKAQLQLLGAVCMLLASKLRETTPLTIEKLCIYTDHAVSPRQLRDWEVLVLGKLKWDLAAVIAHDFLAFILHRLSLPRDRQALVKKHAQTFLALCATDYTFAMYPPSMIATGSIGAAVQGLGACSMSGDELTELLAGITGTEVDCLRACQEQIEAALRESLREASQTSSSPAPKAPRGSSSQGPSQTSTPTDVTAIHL
# CDK1, sequence (P06493 whole entry): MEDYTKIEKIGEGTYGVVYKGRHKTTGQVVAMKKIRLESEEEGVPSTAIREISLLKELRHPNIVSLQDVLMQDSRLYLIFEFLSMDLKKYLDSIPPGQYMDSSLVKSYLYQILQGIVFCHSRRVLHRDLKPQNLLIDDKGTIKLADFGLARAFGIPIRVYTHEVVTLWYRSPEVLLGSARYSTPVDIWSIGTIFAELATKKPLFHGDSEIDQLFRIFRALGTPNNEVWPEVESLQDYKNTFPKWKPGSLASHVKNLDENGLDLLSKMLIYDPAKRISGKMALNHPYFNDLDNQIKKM
# CDK1, sequence (P14635 whole entry partner): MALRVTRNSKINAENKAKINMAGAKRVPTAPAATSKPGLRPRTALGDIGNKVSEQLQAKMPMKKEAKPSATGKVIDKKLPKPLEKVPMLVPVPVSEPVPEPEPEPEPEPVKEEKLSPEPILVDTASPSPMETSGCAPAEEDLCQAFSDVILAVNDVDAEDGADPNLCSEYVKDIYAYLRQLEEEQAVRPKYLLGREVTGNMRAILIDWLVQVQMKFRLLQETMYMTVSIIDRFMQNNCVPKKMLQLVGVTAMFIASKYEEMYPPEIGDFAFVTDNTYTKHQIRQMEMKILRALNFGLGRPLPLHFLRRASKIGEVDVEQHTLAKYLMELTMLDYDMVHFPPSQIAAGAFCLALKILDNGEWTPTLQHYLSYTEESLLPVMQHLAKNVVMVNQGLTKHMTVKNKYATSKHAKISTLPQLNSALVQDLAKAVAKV
# CDK9, sequence (P50750 whole entry): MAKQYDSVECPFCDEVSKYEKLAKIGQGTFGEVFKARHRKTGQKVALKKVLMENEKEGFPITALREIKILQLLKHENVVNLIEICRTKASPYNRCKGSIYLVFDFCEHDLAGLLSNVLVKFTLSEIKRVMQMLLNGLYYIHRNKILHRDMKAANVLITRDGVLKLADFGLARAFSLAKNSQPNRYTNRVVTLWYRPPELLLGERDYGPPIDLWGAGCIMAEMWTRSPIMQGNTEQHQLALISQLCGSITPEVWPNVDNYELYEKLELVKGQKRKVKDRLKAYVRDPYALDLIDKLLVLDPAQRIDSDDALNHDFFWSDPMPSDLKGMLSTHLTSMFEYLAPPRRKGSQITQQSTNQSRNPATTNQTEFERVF
# CDK9, sequence (O60563 whole entry partner): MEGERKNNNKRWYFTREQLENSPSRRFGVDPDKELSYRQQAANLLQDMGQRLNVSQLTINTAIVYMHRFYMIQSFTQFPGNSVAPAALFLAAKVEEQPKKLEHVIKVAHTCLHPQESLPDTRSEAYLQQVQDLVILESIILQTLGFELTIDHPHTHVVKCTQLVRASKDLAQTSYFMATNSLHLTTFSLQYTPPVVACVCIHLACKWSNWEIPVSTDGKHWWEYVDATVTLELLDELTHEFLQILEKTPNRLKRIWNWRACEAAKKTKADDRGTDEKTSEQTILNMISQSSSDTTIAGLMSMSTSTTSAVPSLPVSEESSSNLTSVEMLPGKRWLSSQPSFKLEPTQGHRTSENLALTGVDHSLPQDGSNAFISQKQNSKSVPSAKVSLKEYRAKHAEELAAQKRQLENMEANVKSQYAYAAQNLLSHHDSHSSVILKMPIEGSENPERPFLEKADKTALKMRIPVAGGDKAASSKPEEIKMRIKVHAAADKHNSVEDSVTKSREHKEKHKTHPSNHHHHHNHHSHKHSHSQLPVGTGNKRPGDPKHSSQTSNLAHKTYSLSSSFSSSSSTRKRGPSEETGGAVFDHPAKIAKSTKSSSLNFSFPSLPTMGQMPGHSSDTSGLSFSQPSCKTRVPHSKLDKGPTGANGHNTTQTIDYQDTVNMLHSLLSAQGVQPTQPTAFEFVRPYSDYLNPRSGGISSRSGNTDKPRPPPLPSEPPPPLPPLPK
# CDK4, sequence (P11802 whole entry): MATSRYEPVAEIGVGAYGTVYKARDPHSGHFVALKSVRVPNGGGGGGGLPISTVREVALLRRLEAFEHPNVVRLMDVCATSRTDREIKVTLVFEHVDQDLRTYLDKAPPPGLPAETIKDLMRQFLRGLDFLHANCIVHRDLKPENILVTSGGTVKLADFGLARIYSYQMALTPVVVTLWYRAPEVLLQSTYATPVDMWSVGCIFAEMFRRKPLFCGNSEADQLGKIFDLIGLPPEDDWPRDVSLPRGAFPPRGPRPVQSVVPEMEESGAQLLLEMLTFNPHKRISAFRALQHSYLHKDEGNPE
# CDK4, sequence (P24385 whole entry partner): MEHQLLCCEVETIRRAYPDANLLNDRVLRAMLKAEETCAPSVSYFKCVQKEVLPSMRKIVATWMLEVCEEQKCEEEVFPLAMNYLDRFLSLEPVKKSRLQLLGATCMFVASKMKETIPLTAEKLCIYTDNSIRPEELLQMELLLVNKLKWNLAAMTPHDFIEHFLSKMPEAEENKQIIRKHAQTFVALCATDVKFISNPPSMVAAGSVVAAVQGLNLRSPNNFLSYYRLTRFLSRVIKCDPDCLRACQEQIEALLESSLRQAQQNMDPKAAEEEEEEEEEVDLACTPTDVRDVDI
smiles,measurement,setting,value
"CC(C)c1nn(-c2c(Cl)cncc2Cl)c2nc(Cc3ccc(CN4CCCC4)c(O)c3)[nH]c(=O)c12 [Compound I, 1-(3,5-dichloropyridin-4-yl)-6-(3-hydroxy-4-pyrrolidinomethyl-phenyl)methyl-3-isopropyl-pyrazolo[3,4-d]pyrimidin-4-one]",IC50,"[1]; A2780, 1 h, A2780 cells",~0.5 µM
same,IC50,"[1]; HCT-116, 1 h, HCT116 cells",~5 µM
same,IC50,"[1]; MDA-MB-435, 1 h, MDA-MB-435 cells",~3 µM
same,IC50,"[1]; RPMI-8226, 1 h, RPMI8226 cells",~5 µM
same,IC50,"[1]; SK-MEL-28, 1 h, Sk-mel-28 cells",~3 µM
same,permeability in a PAMPA assay,[2],about 70%
same,IC50,CDK4,~50 nM
same,LCK ± CI (95%) (Td: 6.8 d),"[3]; HCT116, 31.6 [29.5] mg/kg po qdx10",0.21 ± 0.08 and 0.21
same,Max % TGI (d),"[3]; HCT116, 31.6 [29.5] mg/kg po qdx10, day 32",32.7 (32) %
same,LCK ± CI (95%) (Td: 6.8 d),"[3]; HCT116, 63.3 [59.1] mg/kg po qdx10",0.51 ± 0.17 and 0.51
same,Max % BW Loss (d),"[3]; HCT116, 63.3 [59.1] mg/kg po qdx10, day 16",3.2 (16) %
same,Max % TGI (d),"[3]; HCT116, 63.3 [59.1] mg/kg po qdx10, day 32",58.5 (32) %
same,LCK ± CI (95%) (Td: 6.8 d),"[3]; HCT116, 95 [89] mg/kg po qdx10",0.60 ± 0.17 and 0.60
same,Toxic Mortality,"[3]; HCT116, 95 [89] mg/kg po qdx10",1/10
same,Max % TGI (d),"[3]; HCT116, 95 [89] mg/kg po qdx10, day 20",68.4 (20) %
same,Max % BW Loss (d),"[3]; mouse, in vivo, po",10.2 (16) %
same,IC50,CDK1,10 to 50 nM
same,IC50,CDK9,1 to 10 nM
same,IC50,Sk-mel-28,~0.3 µM
same,IC50,"[4]; COLO 205, Colo205 cells",~1 µM
same,IC50,"[4]; HCT-116, HCT116 cells",~3 µM
same,IC50,"[4]; RPMI-8226, RPMI8226 cells",> 1 µM
same,IC50,[4]; A549 cells,> 1 µM
same,IC50,[4]; A2780 cells,~1 µM
same,IC50,[4]; MDA-MB-435 cells,~0.5 µM
same,IC50,[4]; MDA-MB-453 cells,~1 µM
same,IC50,[4]; Raji cells,> 1 µM
same,IC50,CDK6,10 to 50 nM
same,IC50,MDA-MB-468,~0.3 µM
same,LCK ± CI (95%) (Td: 1.7 d),[5]; 32 [30] mg/kg po qdx10,0.44 ± 0.24 and 0.44
same,Toxic Mortality,"[5]; 32 [30] mg/kg po qdx10, N=10",0
same,Max % TGI (d),"[5]; 32 [30] mg/kg po qdx10, day 11",52.2 (11) %
same,LCK ± CI (95%) (Td: 1.7 d),[5]; 63 [59] mg/kg po qdx10,0.93 ± 0.39 and 0.93
same,Toxic Mortality,"[5]; 63 [59] mg/kg po qdx10, N=10",0
same,Max % TGI (d),"[5]; 63 [59] mg/kg po qdx10, day 11",67.3 (11) %
same,LCK ± CI (95%) (Td: 1.7 d),[5]; 95 [89] mg/kg po qdx7,2.16 ± 0.44 and 2.16
same,Toxic Mortality,[5]; 95 [89] mg/kg po qdx7,1/10
same,Max % TGI (d),"[5]; 95 [89] mg/kg po qdx7, day 11",86.2 (11) %
same,IC50,Colo205,~0.1 µM
same,solubility,[6],~390 µM
same,IC50,HCT116,~0.1 µM
same,IC50,[7],10 to 800 nM
same,inhibitory activity against non-CDK kinases,panel of non-CDK kinases,low inhibitory activity
